Data on 20 compounds can be found in PubChem BioAssay AID328 (DTP/NCI, 2004).

Molecules are shown by their SMILES. Values joined by “and” are separate entries in the source; they are usually repeats but may differ in a detail not shown here. Identical values can stand only once. Toxic doses and inconclusive results are not listed.

In this experiment the test system is BDF1 mice, P388 leukemia ip, median survival T/C. As to the kind of experiment: NCI In Vivo Anticancer Drug Screen. Data for tumor model P388 Leukemia (intraperitoneal) in B6D2F1 (BDF1) mice. Particulars: endpoint: median survival time, higher = longer survival. Summed up: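 Steps: implant the tumour, treat one group with compound and another with vehicle, record survival, then divide treated by control.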

Setting [1] is: dose: 100.0 mg/kg/injection, schedule: Q04DX003 (ip), vehicle: saline.
Setting [2] is: dose: 25.0 mg/kg/injection, schedule: Q01DX009 (ip), vehicle: saline with Tween-80.
The mark [3] stands for this setting: dose: 25.0 mg/kg/injection, schedule: Q04DX003 (ip), vehicle: saline with Tween-80.
[4] abbreviates: dose: 50.0 mg/kg/injection, schedule: Q01DX009 (ip), vehicle: saline with Tween-80.
[5] abbreviates: dose: 50.0 mg/kg/injection, schedule: Q04DX003 (ip), vehicle: saline with Tween-80.
Where [6] appears, read: dose: 100.0 mg/kg/injection, schedule: Q01DX009 (ip), vehicle: saline with Tween-80.
Where [7] appears, read: dose: 100.0 mg/kg/injection, schedule: Q04DX003 (ip), vehicle: saline with Tween-80.
Setting [8] is: dose: 200.0 mg/kg/injection, schedule: Q04DX003 (ip), vehicle: saline with Tween-80.
[9] abbreviates: dose: 100.0 mg/kg/injection, schedule: Q01DX009 (ip), vehicle: saline.
[10] abbreviates: dose: 200.0 mg/kg/injection, schedule: Q01DX009 (ip), vehicle: saline.
The mark [11] stands for this setting: dose: 200.0 mg/kg/injection, schedule: Q01DX009 (ip), vehicle: saline with Tween-80.
Setting [12] is: dose: 400.0 mg/kg/injection, schedule: Q01DX009 (ip), vehicle: saline with Tween-80.
The mark [13] stands for this setting: dose: 200.0 mg/kg/injection, schedule: Q04DX003 (ip), vehicle: saline.
The mark [14] stands for this setting: dose: 50.0 mg/kg/injection, schedule: Q01DX009 (ip), vehicle: saline.
The mark [15] stands for this setting: dose: 100.0 mg/kg/injection, schedule: Q01DX001 (ip), vehicle: Klucel (hydroxypropylcellulose) (HPC).
Where [16] appears, read: dose: 200.0 mg/kg/injection, schedule: Q01DX001 (ip), vehicle: Klucel (hydroxypropylcellulose) (HPC).
[17] abbreviates: dose: 50.0 mg/kg/injection, schedule: Q04DX002 (ip), vehicle: saline.
Setting [18] is: dose: 100.0 mg/kg/injection, schedule: Q04DX002 (ip), vehicle: saline.
[19] abbreviates: dose: 200.0 mg/kg/injection, schedule: Q04DX002 (ip), vehicle: saline.

For `CC[n+]1ccc(Nc2ccc(/C=C/c3ccc4cc(Nc5cc[n+](CC)cc5)ccc4[n+]3CC)cc2)cc1`, the T/C runs as follows: (dose: 2.5 mg/kg/injection, schedule: Q01DX009 (ip), vehicle: saline) 158 % of control and 161 % of control; (dose: 3.13 mg/kg/injection, schedule: Q01DX009 (oral), vehicle: saline) 86 % of control; (dose: 5.0 mg/kg/injection, schedule: Q01DX009 (ip), vehicle: saline) 177 % of control and 187 % of control; (dose: 6.25 mg/kg/injection, schedule: Q01DX009 (oral), vehicle: saline) 93 % of control; (dose: 10.0 mg/kg/injection, schedule: Q01DX009 (ip), vehicle: saline) 229 % of control and 239 % of control; (dose: 12.5 mg/kg/injection, schedule: Q01DX009 (oral), vehicle: saline) 86 % of control. For the same compound, the T/C (dose: 25.0 mg/kg/injection, schedule: Q01DX009 (oral), vehicle: saline) was 86 % of control.

Consider `NC(CCl)=NC1CCCCC1`, for which the T/C runs as follows: (dose: 12.5 mg/kg/injection, schedule: Q04DX003 (ip), vehicle: saline) 102 % of control; (dose: 22.0 mg/kg/injection, schedule: Q04DX003 (ip), vehicle: saline) 121 % of control; (dose: 25.0 mg/kg/injection, schedule: Q04DX003 (ip), vehicle: saline) 117 % of control; (dose: 75.0 mg/kg/injection, schedule: Q04DX003 (ip), vehicle: saline) 96 % of control; under setting [1], 88 % of control.

Take `NNC(=O)c1ccc(Cl)c(Cl)c1`: the T/C reads like this: (dose: 6.25 mg/kg/injection, schedule: Q01DX009 (ip), vehicle: saline with Tween-80) 113 % of control; (dose: 12.5 mg/kg/injection, schedule: Q01DX009 (ip), vehicle: saline with Tween-80) 86 % of control; (dose: 12.5 mg/kg/injection, schedule: Q04DX003 (ip), vehicle: saline with Tween-80) 98 % of control; under setting [2], 89 % of control; under setting [3], 107 % of control; under setting [4], 104 % of control. Further, the T/C was 107 % of control under setting [5]; 91 % of control (dose: 100.0 mg/kg/injection, schedule: Q01DX001 (ip), vehicle: saline sonified); 97 % of control under setting [6]; 107 % of control under setting [7]; 100 % of control (dose: 200.0 mg/kg/injection, schedule: Q01DX001 (ip), vehicle: saline sonified); 107 % of control under setting [8].

As to `CCC(c1ccc2cc(OC)ccc2c1)C(CC(=O)O)C(=O)OC` (stereo not drawn), the T/C (dose: 100.0 mg/kg/injection, schedule: Q04DX003 (ip), vehicle: Klucel (hydroxypropylcellulose) (HPC)) is 87 % of control; the T/C (dose: 200.0 mg/kg/injection, schedule: Q04DX003 (ip), vehicle: Klucel (hydroxypropylcellulose) (HPC)) is 91 % of control; the T/C (dose: 400.0 mg/kg/injection, schedule: Q04DX003 (ip), vehicle: Klucel (hydroxypropylcellulose) (HPC)) was 91 % of control.

For `C[N+]12CCN(CC1)CC2`, the T/C was 91 % of control under setting [9]; 91 % of control under setting [10]; 100 % of control (dose: 400.0 mg/kg/injection, schedule: Q01DX009 (ip), vehicle: saline).

Regarding `O=C(N/N=C/c1cccc(S(=O)(=O)O)c1)c1ccncc1`, the T/C is 97 % of control under setting [6], 86 % of control under setting [11] and 94 % of control under setting [12].

As to `CC1(C)C2C=CC1C(CO)(CO)C2` (stereo not drawn), the T/C (dose: 100.0 mg/kg/injection, schedule: Q01DX001 (ip), vehicle: saline) was 100 % of control; the T/C under setting [1] was 100 % of control; the T/C (dose: 200.0 mg/kg/injection, schedule: Q01DX001 (ip), vehicle: saline) is 104 % of control; the T/C under setting [13] was 91 % of control; the T/C (dose: 400.0 mg/kg/injection, schedule: Q01DX001 (ip), vehicle: saline) was 108 % of control; the T/C (dose: 400.0 mg/kg/injection, schedule: Q04DX003 (ip), vehicle: saline) was 100 % of control.

As for `O=S(=O)(CCl)OCCCl`, the T/C was 123 % of control under setting [2], 107 % of control under setting [4], 214 % of control under setting [6] and 177 % of control under setting [11].

As for `CC1(C)N=C(N)N=C(N)N1c1ccc(F)c(C(F)(F)F)c1`, the T/C reads like this: (dose: 3.12 mg/kg/injection, schedule: Q01DX009 (ip), vehicle: saline) 120 % of control; (dose: 12.5 mg/kg/injection, schedule: Q01DX009 (ip), vehicle: saline) 169 % of control and 189 % of control; (dose: 16.0 mg/kg/injection, schedule: Q01DX009 (ip), vehicle: saline) 216 % of control; (dose: 25.0 mg/kg/injection, schedule: Q01DX009 (ip), vehicle: saline) 245 % of control and 87 % of control and 191 % of control; under setting [14], 216 % of control.

For `CC1C(=O)CC(=O)C1=O` (stereo not drawn), the T/C by setting is: under setting [14], 100 % of control; under setting [9], 104 % of control; under setting [10], 104 % of control.

Consider `Cc1ccc(-c2nc3sccn3c2/C=N/NS(=O)(=O)c2ccc(C)cc2)cc1`, for which the T/C reads like this: under setting [15], 101 % of control; under setting [16], 101 % of control; (dose: 400.0 mg/kg/injection, schedule: Q01DX001 (ip), vehicle: Klucel (hydroxypropylcellulose) (HPC)) 101 % of control.

Consider `CCOC(=O)N1CCN(CCCCCOc2ccc(CC(C)(C)C)cc2Cl)CC1`, for which the T/C was 121 % of control under setting [4] and 118 % of control under setting [6].

With `CCCC(CCC)(C(N)=O)C(=O)O`, the T/C was 94 % of control (dose: 50.0 mg/kg/injection, schedule: Q01DX001 (ip), vehicle: Klucel (hydroxypropylcellulose) (HPC)); 100 % of control under setting [15]; 122 % of control under setting [16].

As to `COc1cc2oc(=O)c3c(c2cc1OC)CCN(CCN1CCCCC1)C3`, the T/C is, setting by setting: under setting [17], 101 % of control; under setting [18], 100 % of control; under setting [19], 108 % of control.

Turning to `C[S+](C)Cc1ccc(C(=O)Oc2ccc([N+](=O)[O-])cc2)cc1`, the T/C was 100 % of control under setting [14]; 100 % of control (dose: 50.0 mg/kg/injection, schedule: Q04DX003 (ip), vehicle: saline); 105 % of control under setting [9]; 109 % of control under setting [1]; 100 % of control under setting [13].

Regarding `CCN(CC)CCCC(C)Nc1cc(C)nc2cc(N(C)C)ccc12` (stereo not drawn), the T/C was 117 % of control (dose: 6.25 mg/kg/injection, schedule: Q01DX009 (ip), vehicle: Klucel (hydroxypropylcellulose) (HPC)) and 108 % of control (dose: 12.5 mg/kg/injection, schedule: Q01DX009 (ip), vehicle: Klucel (hydroxypropylcellulose) (HPC)).

Regarding `O=C1c2ccccc2C(=O)N1CCCn1c2ccccc2c2cnccc21`, the T/C is 105 % of control under setting [6]; 95 % of control under setting [7]; 90 % of control under setting [11]; 100 % of control under setting [8]; 110 % of control under setting [12]; 90 % of control (dose: 400.0 mg/kg/injection, schedule: Q04DX003 (ip), vehicle: saline with Tween-80).

On to `O=C(O)c1ccc(Cl)cc1Nc1ccc(Cl)cc1`, for which the T/C reads like this: under setting [3], 120 % of control; under setting [5], 100 % of control; under setting [7], 100 % of control.

As to `Cc1ccc(-c2nc3ccccc3c(=O)n2/N=C/c2ccccc2)cc1`, the T/C under setting [4] was 90 % of control and the T/C under setting [6] is 93 % of control.

As for `OCC1CSCN1` (stereo not drawn), the T/C runs as follows: under setting [17], 100 % of control; under setting [18], 103 % of control; under setting [19], 98 % of control.
